Data reported in PubChem BioAssay (NCI).
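Interpolation was linear, between the two tested concentrations surrounding the appropriate level; five concentrations were tested over 48 hours in 96-well plates. GI50 is the concentration that inhibits growth by half. TGI: concentration producing complete growth inhibition.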

Assays:
Test in all cases: DTP human tumour cell line panel, 48 h
786-0 renal = tested on: 786-0 renal
A498 renal = tested on: A498 renal
A549 NSCLC = tested on: A549 NSCLC
ACHN renal = tested on: ACHN renal
BT-549 breast = tested on: BT-549 breast
CAKI-1 renal = tested on: CAKI-1 renal
CCRF-CEM leukemia = tested on: CCRF-CEM leukemia
COLO 205 colon = tested on: COLO 205 colon
DU-145 prostate = tested on: DU-145 prostate
EKVX NSCLC = tested on: EKVX NSCLC
HCC-2998 colon = tested on: HCC-2998 colon
HCT-116 colon = tested on: HCT-116 colon
HCT-15 colon = tested on: HCT-15 colon
HL-60(TB) leukemia = tested on: HL-60(TB) leukemia
HOP-62 NSCLC = tested on: HOP-62 NSCLC
HS 578T breast = tested on: HS 578T breast
HT29 colon = tested on: HT29 colon
IGROV1 ovarian = tested on: IGROV1 ovarian
K-562 leukemia = tested on: K-562 leukemia
KM12 colon = tested on: KM12 colon
LOX IMVI melanoma = tested on: LOX IMVI melanoma
M14 melanoma = tested on: M14 melanoma
MALME-3M melanoma = tested on: MALME-3M melanoma
MCF7 breast = tested on: MCF7 breast
MDA-MB-231 breast = tested on: MDA-MB-231 breast
MDA-MB-435 = tested on: MDA-MB-435
MDA-MB-468 breast = tested on: MDA-MB-468 breast
MOLT-4 leukemia = tested on: MOLT-4 leukemia
NCI-H226 lung = tested on: NCI-H226 lung
NCI-H23 lung = tested on: NCI-H23 lung
NCI-H460 lung = tested on: NCI-H460 lung
NCI-H522 lung = tested on: NCI-H522 lung
NCI/ADR-RES ovarian = tested on: NCI/ADR-RES ovarian
OVCAR-3 ovarian = tested on: OVCAR-3 ovarian
OVCAR-4 ovarian = tested on: OVCAR-4 ovarian
OVCAR-5 ovarian = tested on: OVCAR-5 ovarian
OVCAR-8 ovarian = tested on: OVCAR-8 ovarian
PC-3 prostate = tested on: PC-3 prostate
RPMI-8226 leukemia = tested on: RPMI-8226 leukemia
RXF 393 renal = tested on: RXF 393 renal
SF-268 CNS = tested on: SF-268 CNS
SF-295 CNS = tested on: SF-295 CNS
SF-539 CNS = tested on: SF-539 CNS
SK-MEL-2 melanoma = tested on: SK-MEL-2 melanoma
SK-MEL-28 melanoma = tested on: SK-MEL-28 melanoma
SK-MEL-5 melanoma = tested on: SK-MEL-5 melanoma
SK-OV-3 ovarian = tested on: SK-OV-3 ovarian
SN12C renal = tested on: SN12C renal
SNB-19 CNS = tested on: SNB-19 CNS
SR leukemia = tested on: SR leukemia
SW-620 colon = tested on: SW-620 colon
T-47D breast = tested on: T-47D breast
TK-10 renal = tested on: TK-10 renal
U251 CNS = tested on: U251 CNS
UACC-257 melanoma = tested on: UACC-257 melanoma
UACC-62 melanoma = tested on: UACC-62 melanoma
UO-31 renal = tested on: UO-31 renal

## Cc1ccc2nc3c(nc2c1)c1cc(I)ccc1n3CCN(C)C
786-0 renal
  GI50: 5.54 µM
  TGI: 19.1 µM
A498 renal
  GI50: 14.2 µM
  TGI: 29.3 µM
A549 NSCLC
  GI50: 3.66 µM
  TGI: 14.2 µM
ACHN renal
  GI50: 3.05 µM
  TGI: 13.2 µM
BT-549 breast
  GI50: 14.8 µM
  TGI: 28.8 µM
CAKI-1 renal
  GI50: 3.78 µM
  TGI: 17.9 µM
CCRF-CEM leukemia
  GI50: 12.6 µM
  TGI: 28.7 µM
COLO 205 colon
  GI50: 3.56 µM
  TGI: 16.7 µM
DU-145 prostate
  GI50: 5.04 µM
  TGI: 16.8 µM
EKVX NSCLC
  GI50: 7.08 µM
  TGI: 20.9 µM
HCC-2998 colon
  GI50: 3.81 µM
  TGI: 15.3 µM
HCT-116 colon
  GI50: 3.6 µM
  TGI: 14.4 µM
HCT-15 colon
  GI50: 3.14 µM
  TGI: 12.9 µM
HL-60(TB) leukemia
  GI50: 3.16 µM
  TGI: 20.5 µM
HOP-62 NSCLC
  GI50: 4.81 µM
  TGI: 20.5 µM
HS 578T breast
  GI50: 12.5 µM
  TGI: 34.3 µM
HT29 colon
  GI50: 3.42 µM
  TGI: 13.4 µM
IGROV1 ovarian
  GI50: 4.87 µM
  TGI: 18.5 µM
K-562 leukemia
  GI50: 4.06 µM
  TGI: 18.8 µM
KM12 colon
  GI50: 4.13 µM
  TGI: 16.8 µM
LOX IMVI melanoma
  GI50: 3.72 µM
  TGI: 14.4 µM
M14 melanoma
  GI50: 11.1 µM
  TGI: 25.4 µM
MALME-3M melanoma
  GI50: 10.3 µM
  TGI: 23.1 µM
MCF7 breast
  GI50: 3.35 µM
  TGI: 13.9 µM
MDA-MB-231 breast
  GI50: 4.25 µM
  TGI: 18 µM
MDA-MB-435
  GI50: 7.41 µM
  TGI: 20 µM
MDA-MB-468 breast
  GI50: 4.12 µM
  TGI: 17.3 µM
MOLT-4 leukemia
  GI50: 7.02 µM
  TGI: 24.8 µM
NCI-H226 lung
  GI50: 5.98 µM
  TGI: 23.4 µM
NCI-H23 lung
  GI50: 6.07 µM
  TGI: 19.6 µM
NCI-H460 lung
  GI50: 3.51 µM
  TGI: 14 µM
NCI-H522 lung
  GI50: 4.64 µM
  TGI: 18.5 µM
NCI/ADR-RES ovarian
  GI50: 4.67 µM
  TGI: 18.4 µM
OVCAR-3 ovarian
  GI50: 5.63 µM
  TGI: 18.7 µM
OVCAR-4 ovarian
  GI50: 6.19 µM
  TGI: 20.7 µM
OVCAR-5 ovarian
  GI50: 5.36 µM
  TGI: 18.5 µM
OVCAR-8 ovarian
  GI50: 3.72 µM
  TGI: 15.2 µM
PC-3 prostate
  GI50: 3.84 µM
  TGI: 17.5 µM
RPMI-8226 leukemia
  GI50: 7.59 µM
  TGI: 25.4 µM
RXF 393 renal
  GI50: 4.24 µM
  TGI: 15.7 µM
SF-268 CNS
  GI50: 5.36 µM
  TGI: 19.2 µM
SF-295 CNS
  GI50: 4.09 µM
  TGI: 16.2 µM
SF-539 CNS
  GI50: 4.87 µM
  TGI: 17.2 µM
SK-MEL-2 melanoma
  GI50: 13.2 µM
  TGI: 26.4 µM
SK-MEL-28 melanoma
  GI50: 13.8 µM
  TGI: 26.7 µM
SK-MEL-5 melanoma
  GI50: 12.1 µM
  TGI: 25.2 µM
SK-OV-3 ovarian
  GI50: 13.3 µM
  TGI: 30.5 µM
SN12C renal
  GI50: 3.92 µM
  TGI: 15.5 µM
SNB-19 CNS
  GI50: 9.48 µM
  TGI: 21.4 µM
SR leukemia
  GI50: 3.18 µM
  TGI: 14.8 µM
SW-620 colon
  GI50: 3.61 µM
  TGI: 15.9 µM
T-47D breast
  GI50: 7.9 µM
  TGI: 24.9 µM
TK-10 renal
  GI50: 13.8 µM
  TGI: 27.8 µM
U251 CNS
  GI50: 4.66 µM
  TGI: 16 µM
UACC-257 melanoma
  GI50: 13.4 µM
  TGI: 27 µM
UACC-62 melanoma
  GI50: 11.7 µM
  TGI: 24 µM
UO-31 renal
  GI50: 1.92 µM
  TGI: 15.8 µM
